# Measurements reported in US8222280B2, “Ether compounds with nitrogen-containing 5-member heterocycle and uses thereof” (Sinochem Corporation, priority 2008, dated 2012).
# Key:
# [1] = tested on: second instar larvae of diamond backmoth (Plutella xylostella); assay: Insecticidal activity against diamond backmoth, leaf disc spraying by airbrush; assay type: in vivo; conditions: mortality after 72 hrs, sprayed cabbage leaf disc
# Protocol: To determine the insecticidal and acaricidal activity of selected compounds by the following procedures:
# Compounds were dissolved in mixed solvent (acetone:methanol=1:1), and diluted to required concentration with water containing 0.1% of tween 80.
# The second instar larvae of diamond backmoth (Plutella xylostella) were used in biological test. The method of spraying by airbrush was employed.
# Determination of insecticidal activity against diamond backmoth: The cabbage leaves were made into plates of 1 cm diameter by punch. A test solution (0.5 ml) was sprayed by airbrush at the pressure of 0.7 kg/cm^2 to both sides of every plate. 10 Second instar larvae were put into the petri-dishes after the leaf disc air-dried and 3 replicates were set for each treatment. Then the insects were maintained in observation room ([…], 60-70% R.H.). Scores were conducted and mortalities were calculated after 72 hrs.
# wheat powdery mildew = assay: Fungicidal activity in vivo on potted plants; conditions: 400 ppm; sprayed on potted plant, inoculation after 24 hours, visual assessment after about 1 week
# Protocol: Determination of fungicidal activities against plant diseases of selected compounds were carried out by the following procedure:
# Determination of Fungicidal Activity In Vivo:
# Plants were prepared in pot. Compounds were dissolved in acetone and diluted to required concentration by water containing 0.1% (wt) Tween80. Test solution was sprayed onto potted plant. Pathogen inoculation was carried out after 24 hours, then plants were hold in growth chambers maintaining constant temperature and moisture for infection. When untreated plant was under desirable disease severity (after 1 week approximately), assessment was carried out by visual observation.
SMILES,control of the second instar larvae of diamond backmoth ([1]; dose 100 mg/L),also measured
Cn1nc(-c2ccccc2)cc1OCCCOc1c(Cl)cc(OCC=C(Cl)Cl)cc1Cl [Compound 1],100%,–
Cn1nc(-c2ccc(Cl)cc2)cc1OCCCOc1c(Cl)cc(OCC=C(Cl)Cl)cc1Cl [Compound 2],100%,control of the second instar larvae of diamond backmoth ([1]; dose 25 mg/L): 100%; control of wheat powdery mildew (wheat powdery mildew): more than 70%
CSc1ccc(-c2cc(OCCCOc3c(Cl)cc(OCC=C(Cl)Cl)cc3Cl)n(C)n2)cc1 [Compound 8],100%,–
Cn1nc(-c2ccc(Cl)cc2Cl)cc1OCCCOc1c(Cl)cc(OCC=C(Cl)Cl)cc1Cl [Compound 11],100%,–
COc1ccc(-c2cc(OCCCOc3c(Cl)cc(OCC=C(Cl)Cl)cc3Cl)n(C)n2)cc1 [Compound 13],100%,–
Cn1nc(-c2ccc(Br)cc2)cc1OCCCOc1c(Cl)cc(OCC=C(Cl)Cl)cc1Cl [Compound 16],100%,–
Cc1ccc(-c2cc(OCCCOc3c(Cl)cc(OCC=C(Cl)Cl)cc3Cl)n(C)n2)cc1 [Compound 17],100%,–
CCc1ccc(-c2cc(OCCCOc3c(Cl)cc(OCC=C(Cl)Cl)cc3Cl)n(C)n2)cc1 [Compound 18],100%,–
COc1ccccc1-c1cc(OCCCOc2c(Cl)cc(OCC=C(Cl)Cl)cc2Cl)n(C)n1 [Compound 24],100%,–
Cc1ccc(-c2cc(OCCCOc3c(Cl)cc(OCC=C(Cl)Cl)cc3Cl)n(C)n2)c(C)c1 [Compound 26],100%,–
CCCc1ccc(-c2cc(OCCCOc3c(Cl)cc(OCC=C(Cl)Cl)cc3Cl)n(C)n2)cc1 [Compound 38],100%,–
Cc1c(-c2ccccc2)nn(C)c1OCCCOc1c(Cl)cc(OCC=C(Cl)Cl)cc1Cl [Compound 76],100%,–
Cc1c(-c2ccc(Cl)cc2)nn(C)c1OCCCOc1c(Cl)cc(OCC=C(Cl)Cl)cc1Cl [Compound 77],100%,–
Cc1c(-c2ccc(Cl)cc2Cl)nn(C)c1OCCCOc1c(Cl)cc(OCC=C(Cl)Cl)cc1Cl [Compound 86],100%,–
Cc1ccc(-c2nn(C)c(OCCCOc3c(Cl)cc(OCC=C(Cl)Cl)cc3Cl)c2C)cc1 [Compound 92],100%,–
Cn1nc(-c2ccc(Cl)cc2)cc1OCCOc1c(Cl)cc(OCC=C(Cl)Cl)cc1Cl [Compound 225],100%,control of the second instar larvae of diamond backmoth ([1]; dose 25 mg/L): 100%
Cn1nc(-c2ccc(Cl)cc2)cc1OCCCCOc1c(Cl)cc(OCC=C(Cl)Cl)cc1Cl [Compound 247],100%,control of the second instar larvae of diamond backmoth ([1]; dose 25 mg/L): 100%
Cn1nc(-c2ccc(Cl)cc2)cc1OCCCCOc1ccc(OCC=C(Cl)Cl)cc1Cl [Compound 248],100%,control of the second instar larvae of diamond backmoth ([1]; dose 25 mg/L): 100%
Cc1c(-c2ccccc2)nn(C)c1OCCCCOc1c(Cl)cc(OCC=C(Cl)Cl)cc1Cl [Compound 257],100%,–
Cn1nc(OCCCOc2c(Cl)cc(OCC=C(Cl)Cl)cc2Cl)cc1-c1ccccc1 [Compound 268],100%,control of the second instar larvae of diamond backmoth ([1]; dose 25 mg/L): 100%
Cn1nc(OCCCOc2c(Cl)cc(OCC=C(Cl)Cl)cc2Cl)cc1-c1ccc(Cl)cc1 [Compound 269],100%,control of the second instar larvae of diamond backmoth ([1]; dose 25 mg/L): 100%
Cn1nc(OCCCOc2c(Cl)cc(OCC=C(Cl)Cl)cc2Cl)cc1-c1ccc(Cl)cc1Cl [Compound 278],100%,–

SMILES,control of the second instar larvae of diamond backmoth ([1]; dose 100 mg/L),also measured
COc1ccc(-c2cc(OCCCOc3c(Cl)cc(OCC=C(Cl)Cl)cc3Cl)nn2C)cc1 [Compound 280],100%,–
Cn1nc(OCCCOc2c(Cl)cc(OCC=C(Cl)Cl)cc2Cl)cc1-c1ccc(Br)cc1 [Compound 283],100%,–
Cc1ccc(-c2cc(OCCCOc3c(Cl)cc(OCC=C(Cl)Cl)cc3Cl)nn2C)cc1 [Compound 284],100%,–
Cc1ccc(-c2cc(OCCCOc3c(Cl)cc(OCC=C(Cl)Cl)cc3Cl)nn2C)c(C)c1 [Compound 293],100%,–
Cn1nc(OCCCOc2c(Cl)cc(OCC=C(Cl)Cl)cc2Cl)cc1-c1ccc(C(C)(C)C)cc1 [Compound 306],100%,–
Cc1c(OCCCOc2c(Cl)cc(OCC=C(Cl)Cl)cc2Cl)nn(C)c1-c1ccc(F)cc1 [Compound 352],100%,control of the second instar larvae of diamond backmoth ([1]; dose 25 mg/L): 100%
CCOc1ccc(-c2c(C)c(OCCCOc3c(Cl)cc(OCC=C(Cl)Cl)cc3Cl)nn2C)cc1 [Compound 356],100%,–
Cc1c(OCCCOc2c(Cl)cc(OCC=C(Cl)Cl)cc2Cl)nn(C)c1-c1ccc(Cl)cc1Cl [Compound 360],100%,–
Cc1c(OCCCOc2c(Cl)cc(OCC=C(Cl)Cl)cc2Cl)nn(C)c1-c1ccc(Cl)c(Cl)c1 [Compound 361],100%,–
COc1ccc(-c2c(C)c(OCCCOc3c(Cl)cc(OCC=C(Cl)Cl)cc3Cl)nn2C)cc1 [Compound 363],100%,–
Cc1ccc(-c2c(C)c(OCCCOc3c(Cl)cc(OCC=C(Cl)Cl)cc3Cl)nn2C)cc1 [Compound 367],100%,control of the second instar larvae of diamond backmoth ([1]; dose 25 mg/L): 100%
CCc1ccc(-c2c(C)c(OCCCOc3c(Cl)cc(OCC=C(Cl)Cl)cc3Cl)nn2C)cc1 [Compound 368],100%,–
Cc1ccc(-c2c(C)c(OCCCOc3c(Cl)cc(OCC=C(Cl)Cl)cc3Cl)nn2C)cc1C [Compound 377],100%,control of the second instar larvae of diamond backmoth ([1]; dose 25 mg/L): 100%
Cc1c(OCCCOc2c(Cl)cc(OCC=C(Cl)Cl)cc2Cl)nn(C)c1-c1ccc(C(C)C)cc1 [Compound 387],100%,control of the second instar larvae of diamond backmoth ([1]; dose 25 mg/L): 100%
Cc1c(OCCCOc2c(Cl)cc(OCC=C(Cl)Cl)cc2Cl)nn(C)c1-c1ccc(C(C)(C)C)cc1 [Compound 389],100%,–
Cn1nc(OCCOc2c(Cl)cc(OCC=C(Cl)Cl)cc2Cl)cc1-c1ccc(Cl)cc1 [Compound 500],100%,–
Cn1nc(OCCCCOc2c(Cl)cc(OCC=C(Cl)Cl)cc2Cl)cc1-c1ccc(Cl)cc1 [Compound 522],100%,–
Cc1c(OCCCCOc2c(Cl)cc(OCC=C(Cl)Cl)cc2Cl)nn(C)c1-c1ccccc1 [Compound 532],100%,–
Cc1ccc(-c2c(C)c(OCCCCOc3c(Cl)cc(OCC=C(Cl)Cl)cc3Cl)nn2C)cc1 [Compound 538],100%,–
ClC(Cl)=CCOc1cc(Cl)c(OCCCOc2cnn(-c3ccc(Cl)cc3)c2)c(Cl)c1 [Compound 546],100%,–
"FC(F)(F)c1ccc(OCCCOc2c(Cl)cc(OCC=C(Cl)Cl)cc2Cl)nc1 [pyridalyl, Pyridalyl, reference compound]",100%,control of the second instar larvae of diamond backmoth ([1]; dose 6.25 mg/L): 65%; control of the second instar larvae of diamond backmoth ([1]; dose 25 mg/L): 100%
